Source: patent US12312337B2, “Compounds and methods for treating cancer” (ANTIDOTE IP HOLDINGS, LLC, priority 2019, dated 2025)
pIC50: −log10 of the molar value.

Target: T1, human AhR (Homo sapiens, UniProt P35869)
T1 construct: INDIGO's Aryl Hydrocarbon Receptor (AhR) Reporter Cells include the luciferase reporter gene functionally linked to an AhR-responsive promoter
T1 sequence (P35869 11-848): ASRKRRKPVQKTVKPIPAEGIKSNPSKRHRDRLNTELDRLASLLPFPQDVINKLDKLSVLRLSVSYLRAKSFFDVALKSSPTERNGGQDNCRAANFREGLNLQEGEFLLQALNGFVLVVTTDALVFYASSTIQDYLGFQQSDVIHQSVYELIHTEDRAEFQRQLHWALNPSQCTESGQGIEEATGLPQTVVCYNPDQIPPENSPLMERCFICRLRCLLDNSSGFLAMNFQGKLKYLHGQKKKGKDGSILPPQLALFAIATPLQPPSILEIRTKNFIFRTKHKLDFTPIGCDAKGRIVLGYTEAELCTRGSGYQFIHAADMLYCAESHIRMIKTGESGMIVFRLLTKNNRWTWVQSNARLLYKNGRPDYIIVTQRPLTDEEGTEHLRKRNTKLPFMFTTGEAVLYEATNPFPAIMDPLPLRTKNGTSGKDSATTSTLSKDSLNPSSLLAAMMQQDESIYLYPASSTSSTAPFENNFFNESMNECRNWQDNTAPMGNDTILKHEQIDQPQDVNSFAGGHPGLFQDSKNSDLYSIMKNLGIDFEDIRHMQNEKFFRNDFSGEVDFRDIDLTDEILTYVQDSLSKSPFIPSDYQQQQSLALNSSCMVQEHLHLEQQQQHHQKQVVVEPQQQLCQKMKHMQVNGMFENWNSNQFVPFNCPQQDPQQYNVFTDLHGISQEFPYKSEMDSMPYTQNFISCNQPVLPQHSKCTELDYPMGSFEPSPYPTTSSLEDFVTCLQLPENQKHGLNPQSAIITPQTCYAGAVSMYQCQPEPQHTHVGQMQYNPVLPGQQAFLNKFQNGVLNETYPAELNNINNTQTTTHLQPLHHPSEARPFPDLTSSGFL
Test: INDIGO AhR Reporter Assay (luciferase reporter cells, antagonist mode)
Format: cell-based
Details: antagonist mode with 50 nM of VAF347 (AhR agonist); 22-24 hours incubation; luciferase RLU
Excerpt: INDIGO's Aryl Hydrocarbon Receptor (AhR) Reporter Cells include the luciferase reporter gene functionally linked to an AhR-responsive promoter. Thus, quantifying changes in luciferase expression in the treated reporter cells provides a sensitive surrogate measure of the changes in AhR activity. The principle application of this reporter assay is in the screening of test samples to quantify any functional activity, either agonist or antagonist, that they may exert against human AhR. Reporter Cells incorporate the cDNA encoding beetle luciferase, a 62 kD protein originating from the North American firefly (Photinus pyralis). Luciferase catalyzes the mono-oxidation of D-luciferin in a Mg^2+-dependent reaction that consumes 02 and ATP as co-substrates, and yields as products oxyluciferin, AMP, PPi, CO2, and photon emission. Luminescence intensity of the reaction is quantified using a luminometer, and is reported in terms of Relative Light Units (RLU's). In brief, 200 μl of Reporter Cells was dispensed into wells of the assay plate and pre-incubated for 4-6 hours. Following the pre-incubation period, culture media were discarded and 200 µl/well of the prepared 1×-concentration treatment media were added. Following 22-24 hours of incubation, treatment media were discarded and Luciferase Detection Reagent was added. The intensity of light emission (in units of “Relative Light Units” (RLU)) from each assay well was quantified using a plate-reading luminometer. The assay was run as a competitive binding assay in the antagonist mode with 50 nM of VAF347, a known AhR agonist.
In Table 4, IC50 values are reported as A, B, C, or D. A represents an IC50 value of less than 100 nM. B represents an IC50 value of equal or greater than 100 nM and less than 500 nM. C represents an IC50 value of equal or greater than 500 nM and less than 1 μM. D represents an IC50 value of equal or greater than 1 μM.

pIC50	SMILES
6.30 to 7.00	Cc1ccccc1-c1cnc2cc(C(=O)Nc3cc(C(F)(F)F)nn3C)ccc2c1 [Compound 52, N-[1-methyl-3-(trifluoromethyl)-1H-pyrazol-5-yl]-3-(2-methylphenyl) quinoline-7-carboxamide]
6.00 to 6.30	Cn1nc(C(F)(F)F)cc1NC(=O)c1ccc2cc(-c3ccccc3C(F)(F)F)cnc2c1 [Compound 53, N-[1-methyl-3-(trifluoromethyl)-1H-pyrazol-5-yl]-3-[2-(trifluoromethyl)phenyl]quinoline-7-carboxamide]
> 7.00	Cn1nc(C(F)(F)F)cc1NC(=O)c1ccc2cc(-c3ccccc3F)cnc2c1 [Compound 54, 3-(2-Fluorophenyl)-N-[1-methyl-3-(trifluoromethyl)-1H-pyrazol-5-yl]quinoline-7-carboxamide]
< 6.00	Cn1nc(C(F)(F)F)cc1NC(=O)c1ccc2cc(-c3cccc(C(F)(F)F)c3)cnc2c1 [Compound 55, N-[1-Methyl-3-(trifluoromethyl)-1H-pyrazol-5-yl]-3-[3-(trifluoromethyl)phenyl]quinoline-7-carboxamide]
< 6.00	Cn1nc(C(F)(F)F)cc1NC(=O)c1ccc2cc(-c3cccc(F)c3)cnc2c1 [Compound 60, 3-(3-Fluorophenyl)-N-[1-methyl-3-(trifluoromethyl)-1H-pyrazol-5-yl]quinoline-7-carboxamide]
> 7.00	Cn1nc(C(F)(F)F)cc1NC(=O)c1ccc2cc(-c3ccc(F)cc3)cnc2c1 [Compound 61, 3-(4-Fluorophenyl)-N-[1-methyl-3-(trifluoromethyl)-1H-pyrazol-5-yl]quinoline-7-carboxamide]
< 6.00	Cn1nc(C(F)(F)F)cc1NC(=O)c1ccc2cc(-c3cccc(Cl)c3)cnc2c1 [Compound 65, 3-(3-chlorophenyl)-N-[1-methyl-3-(trifluoromethyl)-1H-pyrazol-5-yl]quinoline-7-carboxamide]
6.30 to 7.00	Cn1nc(C(F)(F)F)cc1NC(=O)c1ccc2cc(-c3ccccc3Cl)cnc2c1 [Compound 66, 3-(2-Chlorophenyl)-N-[1-methyl-3-(trifluoromethyl)-1H-pyrazol-5-yl]quinoline-7-carboxamide]
> 7.00	Cn1nc(C(F)(F)F)cc1NC(=O)c1ccc2cc(-c3cccs3)cnc2c1 [Compound 73, N-[1-Methyl-3-(trifluoromethyl)-1H-pyrazol-5-yl]-3-(thiophen-2-yl)quinoline-7-carboxamide]
> 7.00	Cn1nc(C(F)(F)F)cc1NC(=O)c1ccc2cc(-c3ccc(F)cc3F)cnc2c1 [Compound 75, 3-(2,4-Difluorophenyl)-N-[1-methyl-3-(trifluoromethyl)-1H-pyrazol-5-yl]quinoline-7-carboxamide]

The next lines start with the compound.

SMILES	pIC50
Cc1ccccc1/N=N/c1ccc(NC(=O)c2ccnn2C)c(C)c1 [CH223191, reference compound]	6.30 to 7.00
Cn1nc(C(C)(C)C)cc1NC(=O)c1cc2ncccc2cc1Cl [Compound 19, N-(3-tert-Butyl-1-methyl-1H-pyrazol-5-yl)-6-chloroquinoline-7-carboxamide]	6.30 to 7.00
Cn1nc(C(F)(F)F)cc1NC(=O)c1cc2ncccc2cc1Cl [Compound 27, 6-Chloro-N-[1-methyl-3-(trifluoromethyl)-1H-pyrazol-5-yl]quinoline-7-carboxamide]	> 7.00
Cn1nc(-c2ccccc2F)cc1NC(=O)c1cc2ncccc2cc1Cl [Compound 29, 6-Chloro-N-[3-(2-fluorophenyl)-1-methyl-1H-pyrazol-5-yl]quinoline-7-carboxamide]	6.30 to 7.00
Cc1ccccc1-c1cc(NC(=O)c2cc3ncccc3cc2Cl)n(C)n1 [Compound 31, 6-Chloro-N-[1-methyl-3-(2-methylphenyl)-1H-pyrazol-5-yl]quinoline-7-carboxamide]	> 7.00
CCN(CC)S(=O)(=O)c1cc(NC(=O)c2cc3ncccc3cc2Cl)ccc1F [Compound 33, 6-Chloro-N-(3-(N,N-diethylsulfamoyl)-4-fluorophenyl)quinoline-7-carboxamide]	6.00 to 6.30
CCN(CC)S(=O)(=O)c1cc(NC(=O)c2cc3ncccc3cc2Cl)ccc1Cl [Compound 34, 6-Chloro-N-(4-chloro-3-(N,N-diethylsulfamoyl)phenyl)quinoline-7-carboxamide]	6.30 to 7.00
Cn1nc(C(F)(F)F)cc1NC(=O)c1ccc2cc(-c3ccccc3)cnc2c1 [Compound 40, N-[1-Methyl-3-(trifluoromethyl)-1H-pyrazol-5-yl]-3-phenylquinoline-7-carboxamide]	> 7.00
Cn1nc(-c2ccccc2C(F)(F)F)cc1NC(=O)c1cc2ncccc2cc1Cl [Compound 44, 6-Chloro-N-(1-methyl-3-(2-(trifluoromethyl)phenyl)-1H-pyrazol-5-yl)quinoline-7-carboxamide]	6.30 to 7.00
Cn1nc(-c2cccc(C(F)(F)F)c2)cc1NC(=O)c1cc2ncccc2cc1Cl [Compound 48, 6-Chloro-N-{1-methyl-3-[3-(trifluoromethyl)phenyl]-1H-pyrazol-5-yl}quinoline-7-carboxamide]	6.30 to 7.00
Cc1ccc(F)cc1-c1cc(NC(=O)c2cc3ncccc3cc2Cl)n(C)n1 [Compound 50, 6-Chloro-N-[3-(5-fluoro-2-methylphenyl)-1-methyl-1H-pyrazol-5-yl]quinoline-7-carboxamide]	> 7.00
Cc1ccc(Cl)cc1-c1cc(NC(=O)c2cc3ncccc3cc2Cl)n(C)n1 [Compound 51, 6-Chloro-N-[3-(5-chloro-2-methylphenyl)-1-methyl-1H-pyrazol-5-yl]quinoline-7-carboxamide]	> 7.00
Cc1cc(F)ccc1-c1cc(NC(=O)c2cc3ncccc3cc2Cl)n(C)n1 [Compound 57, 6-Chloro-N-(3-(4-fluoro-2-methylphenyl)-1-methyl-1H-pyrazol-5-yl) quinoline-7-carboxamide]	6.30 to 7.00
Cc1cc(Cl)ccc1-c1cc(NC(=O)c2cc3ncccc3cc2Cl)n(C)n1 [Compound 58, 6-Chloro-N-(3-(4-chloro-2-methylphenyl)-1-methyl-1H-pyrazol-5-yl)quinoline-7-carboxamide]	6.30 to 7.00
Cc1ccc(C(F)(F)F)cc1-c1cc(NC(=O)c2cc3ncccc3cc2Cl)n(C)n1 [Compound 59]	6.30 to 7.00
Cc1ccc(-c2cnc3cc(C(=O)Nc4cc(C(F)(F)F)nn4C)ccc3c2)cc1 [Compound 62, N-[1-Methyl-3-(trifluoromethyl)-1H-pyrazol-5-yl]-3-(4-methylphenyl) quinoline-7-carboxamide]	6.30 to 7.00
CCN1CCN(c2ccc(NC(=O)c3ccc4cc(-c5ccccc5)cnc4c3)cc2F)CC1 [Compound 64, N-[4-(4-ethylpiperazin-1-yl)-3-fluorophenyl]-3-phenylquinoline-7-carboxamide]	< 6.00
Cn1nc(C(F)(F)F)cc1NC(=O)c1ccc2cc(-c3ccsc3)cnc2c1 [Compound 67, N-[1-Methyl-3-(trifluoromethyl)-1H-pyrazol-5-yl]-3-(thiophen-3-yl)quinoline-7-carboxamide]	> 7.00
Cn1nc(C(C)(C)C)cc1NC(=O)c1ccc2cc(-c3ccc(F)cc3)cnc2c1 [Compound 74, 3-(4-Fluorophenyl)-N-[1-methyl-3-(tert-butyl)-1H-pyrazol-5-yl]quinoline-7-carboxamide]	6.30 to 7.00
Cn1nccc1NC(=O)c1ccc2c(Oc3ccccc3)ccnc2c1 [Compound 76, N-(1-Methyl-1H-pyrazol-5-yl)-4-phenoxyquinoline-7-carboxamide]	< 6.00
Cn1nc(C(F)(F)F)cc1NC(=O)c1ccc2cc(-c3cccnc3)cnc2c1 [Compound 77, N-[1-methyl-3-(trifluoromethyl)-1H-pyrazol-5-yl]-3-(pyridin-3-yl)quinoline-7-carboxamide]	< 6.00
